Reference: patent US20240342159A1, “VALBENAZINE FOR USE IN THE ADD-ON TREATMENT OF SCHIZOPHRENIA” (Neurocrine Biosciences, Inc., priority 2021, published 2024)

Tests used:
[1] = test system: pediatric subjects with TS; assay: treatment-emergent adverse events in pediatric subjects with Tourette Syndrome; format: in vivo, human; settings: higher incidence than placebo
Source text: (§1) Common treatment-emergent adverse events (TEAEs) in pediatric subjects with TS with incidence >5% in the valbenazine treatment groups and with a higher incidence than placebo include headache, somnolence, sedation, upper respiratory tract infection, insomnia, fatigue, vomiting, and suicidal ideation. In the entire valbenazine clinical development program as of 10 Apr. 2021, treatment-emergent serious adverse events (SAEs) occurring in 3 or more valbenazine-treated subjects each were schizophrenia, suicidal ideation, chronic obstructive pulmonary disease, syncope, abdominal pain, depression, mental status changes, and schizoaffective disorder.

dogs = assay: repeat-dose nonclinical toxicology study, dog; format: in vivo
[2] = test system: panel of other drug transporters; assay: inhibition of a panel of other drug transporters; format: in vitro ADME
adults with TD = assay: adverse reactions in 3 placebo-controlled studies in adults with tardive dyskinesia; format: in vivo, human; settings: 6-week treatment
rats [3] = assay: repeat-dose nonclinical toxicology study, rat; format: in vivo
QT interval = QT interval prolongation in clinical use; format: in vivo, human
[4] = in vitro chromosomal aberration assay; format: cell-based
Experimental: (§2) The NOAEL for embryo/fetal development in rats and rabbits was 15 mg/kg/day and 50 mg/kg/day, respectively. […] Valbenazine was negative in genotoxicity assays (in vitro Ames and chromosomal aberration assays and an in vivo rat micronucleus test).

rats [5] = assay: carcinogenicity study, rats; format: in vivo, rat
rat = assay: in vivo rat micronucleus test
Experimental: as §2

P-glycoprotein = P-glycoprotein (Homo sapiens, UniProt P08183); assay: P-glycoprotein inhibition; format: in vitro ADME; settings: only at concentrations that could be achieved in the gastrointestinal tract
mice = assay: repeat-dose nonclinical toxicology study, mouse; format: in vivo
rats [6] = assay: embryo/fetal development study, rats; format: in vivo, rat
Experimental: as §2

[7] = embryo/fetal development study, rats; format: in vivo, rat; settings: rat, in vivo
Experimental: as §2

[8] = test system: cytochrome P450 (CYP) enzyme; assay: cytochrome P450 (CYP) enzyme inhibition or induction; format: in vitro ADME; settings: at pharmacologically relevant concentrations
[9] = embryo/fetal development study, rabbits; format: in vivo, rabbit; settings: rabbit, in vivo
Experimental: as §2

rabbits = assay: embryo/fetal development study, rabbits; format: in vivo, rabbit
Experimental: as §2

[10] = metabolism of valbenazine by hydrolysis; format: in vitro ADME
[11] = central nervous system, respiratory and cardiovascular safety pharmacology studies; format: in vivo; settings: compared with human exposure
[12] = test system: valbenazine-treated subjects; assay: serious adverse events and deaths in the entire valbenazine clinical development program; format: in vivo, human
Source text: as §1
Ten deaths have been reported in completed and ongoing valbenazine studies conducted by NBI: 9 occurred in adult subjects with TD and 1 adult subject with HD. Eight deaths occurred in subjects taking valbenazine, 1 occurred in a subject taking placebo, and 1 remains blinded.

hemizygous Tg.rasH2 mice = assay: carcinogenicity study, hemizygous Tg.rasH2 mice; format: in vivo, mouse
[13] = in vitro Ames genotoxicity assay; format: cell-based
Experimental: as §2

rat fertility = rat fertility study; format: in vivo; settings: 10 mg/kg/day
rat fertility study = format: in vivo; settings: rat, in vivo
[14] = clinical safety signals (cardiovascular, laboratory, vital signs, serum prolactin, suicidality); format: in vivo, human
CYP2D6 = CYP2D6 (Homo sapiens, UniProt P10635); assay: metabolism of NBI-98782 by CYP2D6; format: in vitro ADME
Sequence of CYP2D6 (P10635 whole entry): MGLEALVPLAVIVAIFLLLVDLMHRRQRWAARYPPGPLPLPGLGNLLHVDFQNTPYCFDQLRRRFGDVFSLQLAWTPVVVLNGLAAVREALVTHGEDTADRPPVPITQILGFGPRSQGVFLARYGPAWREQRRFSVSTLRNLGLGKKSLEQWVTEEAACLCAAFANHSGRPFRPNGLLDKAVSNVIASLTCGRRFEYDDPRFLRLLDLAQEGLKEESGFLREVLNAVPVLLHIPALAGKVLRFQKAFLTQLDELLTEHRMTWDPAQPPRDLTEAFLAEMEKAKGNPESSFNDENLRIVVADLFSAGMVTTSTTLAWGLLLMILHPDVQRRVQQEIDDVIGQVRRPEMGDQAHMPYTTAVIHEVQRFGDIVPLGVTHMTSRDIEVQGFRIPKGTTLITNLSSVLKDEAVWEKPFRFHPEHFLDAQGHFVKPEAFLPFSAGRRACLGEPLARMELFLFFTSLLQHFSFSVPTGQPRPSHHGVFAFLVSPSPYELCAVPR

Sequence of P-glycoprotein (P08183 whole entry): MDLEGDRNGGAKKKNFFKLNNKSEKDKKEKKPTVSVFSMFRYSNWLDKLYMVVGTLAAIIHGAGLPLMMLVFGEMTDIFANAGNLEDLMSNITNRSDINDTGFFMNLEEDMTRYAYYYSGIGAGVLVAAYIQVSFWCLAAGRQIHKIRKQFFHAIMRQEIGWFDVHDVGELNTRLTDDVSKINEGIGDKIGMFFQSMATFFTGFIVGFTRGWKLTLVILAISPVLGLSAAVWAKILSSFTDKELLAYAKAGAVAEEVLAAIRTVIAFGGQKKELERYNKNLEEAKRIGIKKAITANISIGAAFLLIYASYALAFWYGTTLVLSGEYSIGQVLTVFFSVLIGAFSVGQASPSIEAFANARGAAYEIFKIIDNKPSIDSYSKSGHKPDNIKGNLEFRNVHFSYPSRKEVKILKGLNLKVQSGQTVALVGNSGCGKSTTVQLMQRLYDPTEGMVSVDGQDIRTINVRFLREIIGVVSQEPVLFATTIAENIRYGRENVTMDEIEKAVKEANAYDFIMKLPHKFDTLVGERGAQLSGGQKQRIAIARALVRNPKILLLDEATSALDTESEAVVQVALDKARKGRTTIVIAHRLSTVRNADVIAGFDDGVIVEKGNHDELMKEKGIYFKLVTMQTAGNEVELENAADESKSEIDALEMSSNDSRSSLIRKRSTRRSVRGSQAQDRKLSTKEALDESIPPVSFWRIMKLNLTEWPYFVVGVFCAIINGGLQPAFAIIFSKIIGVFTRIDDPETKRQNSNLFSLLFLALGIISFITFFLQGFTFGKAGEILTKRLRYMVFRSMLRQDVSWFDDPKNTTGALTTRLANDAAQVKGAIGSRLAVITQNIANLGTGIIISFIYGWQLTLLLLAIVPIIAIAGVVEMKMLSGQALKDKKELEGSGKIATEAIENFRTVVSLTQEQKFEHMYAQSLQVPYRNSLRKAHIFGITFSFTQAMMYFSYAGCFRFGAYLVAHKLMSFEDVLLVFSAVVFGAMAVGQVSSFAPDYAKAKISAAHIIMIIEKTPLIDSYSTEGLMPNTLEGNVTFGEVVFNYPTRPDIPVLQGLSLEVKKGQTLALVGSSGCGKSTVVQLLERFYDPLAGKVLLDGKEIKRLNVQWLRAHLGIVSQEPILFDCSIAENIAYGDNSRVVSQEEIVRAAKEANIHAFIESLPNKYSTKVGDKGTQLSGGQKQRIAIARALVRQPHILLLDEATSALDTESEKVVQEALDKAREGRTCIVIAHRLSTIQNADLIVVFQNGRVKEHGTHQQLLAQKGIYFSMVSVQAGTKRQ

COc1cc2c(cc1OC)[C@H]1C[C@@H](OC(=O)[C@@H](N)C(C)C)[C@H](CC(C)C)CN1CC2 [Valbenazine, L-valine, (2R,3R,11bR)-1,3,4,6,7,11b-hexahydro-9,10-dimethoxy-3-(2-methylpropyl)-2H-benzo[a]quinolizin-2-yl ester]
incidence of common TEAEs: headache, somnolence, sedation, upper respiratory tract infection, insomnia, fatigue, vomiting, suicidal ideation [1]: > 5% | dose with no adverse effects, repeat-dose toxicology (dogs): 15 mg/kg/day | inhibition of a panel of other drug transporters [2]: not an inhibitor | incidence of anticholinergic effects (dry mouth, constipation, disturbance in attention, vision blurred, urinary retention) (adults with TD): 5.4% | incidence of balance disorders/fall (fall, gait disturbance, dizziness, balance disorder) (adults with TD): 4.1% | incidence of somnolence (somnolence, fatigue, sedation) (adults with TD): 10.9% | dose with no adverse effects, repeat-dose toxicology (rats [3]): 3 mg/kg/day | degree of QT prolongation (QT interval; at concentrations expected with recommended dosing): not clinically significant | QT prolongation with higher valbenazine concentrations (QT interval; subjects taking a strong CYP2D6 or CYP3A4 inhibitor, or CYP2D6 poor metabolizers): QT prolongation clinically significant | genotoxicity, chromosomal aberration assay [4]: negative | tumors in carcinogenicity study (rats [5]): did not increase tumors | genotoxicity, rat micronucleus test (rat): negative | inhibition of P-glycoprotein (P-glycoprotein): moderate inhibitor | dose with no adverse effects, repeat-dose toxicology (mice): 60 mg/kg/day | teratogenicity (rats [6]): no evidence of teratogenicity | NOAEL [7]: 15 mg/kg/day | CYP enzyme inhibition or induction [8]: little or no cytochrome P450 (CYP) enzyme inhibition or induction | NOAEL [9]: 50 mg/kg/day | teratogenicity (rabbits): no evidence of teratogenicity | metabolic pathway [10]: metabolized by hydrolysis to NBI-98782 | systemic exposures at the NOAEL in safety pharmacology studies [11]: above those achieved at the highest proposed therapeutic dose in humans | relationship of deaths to study drug ([12]; all ten deaths): not related or unlikely related | deaths in subjects taking valbenazine ([12]; of ten deaths in completed and ongoing studies): Eight | tumors in carcinogenicity study (hemizygous Tg.rasH2 mice): did not increase tumors | genotoxicity, Ames assay [13]: negative | effect on rat fertility (rat fertility): modest negative effect | NOAEL (rat fertility study): 3 mg/kg/day | cardiovascular, laboratory or vital sign related safety signals ([14]; human, in vivo): No cardiovascular, laboratory, or vital sign related safety signals | suicidality ([14]; human, in vivo): does not appear to increase suicidality | serum prolactin ([14]; mean changes with placebo considerably smaller): Increases in serum prolactin above normal laboratory ranges

(+)-α-3-isobutyl-9,10-dimethoxy-1,3,4,6,7,11b-hexahydro-2H-pyrido[2,1-a]isoquinolin-2-ol [NBI-98782]
subsequent metabolism (CYP2D6): metabolized in part by CYP2D6 | systemic exposures at the NOAEL in safety pharmacology studies [11]: above those achieved at the highest proposed therapeutic dose in humans
